The source of these data is article PMC8819291, “Adaptively evolved human oral actinomyces‐sourced defensins show therapeutic potential” (EMBO Molecular Medicine, 2021).

Where a SMILES comes first, the peptide text is derived from it. Bridges are numbered along the chain shown (N, C = ends).

The test system of this assay is BM cells (Bacillus megaterium). In words: Scanning electron microscope observation of cell deformation. It counts as cell-based. As to conditions: 10 × C L, 37°C, 90 min. As for the experimental part: After centrifugation, bacterial pellets were fixed with 2.5% glutaraldehyde for 1 h, followed by washing three times with PBS buffer (pH 7.3). Dehydration was carried out with a series of graded ethanol solutions. Cells were then dried by BAL‐TEC CPD‐030 critical point dryer (Bal‐Tec AG, Balzers, Liechtenstein) before being mounted on carbon tape and sputtered with a gold coating (BAL‐TEC SCD005). Images were visualized in FEI QUANTA 450.

As for `CC[C@H](C)[C@@H]1NC(=O)[C@H](CCCCN)NC(=O)CNC(=O)[C@H](CCCNC(=N)N)NC(=O)[C@@H]2CSSC[C@H](NC(=O)CNC(=O)[C@H](Cc3ccccc3)NC(=O)CN)C(=O)N3CCC[C@H]3C(=O)N[C@@H](Cc3c[nH]c4ccccc34)C(=O)N[C@@H](CC(N)=O)C(=O)N[C@@H](C)C(=O)N[C@@H](Cc3ccc(O)cc3)C(=O)N[C@@H](CCC(=O)O)C(=O)N[C@H]3CSSC[C@H](NC(=O)[C@H]([C@@H](C)O)NC(=O)[C@H](CCC(N)=O)NC(=O)[C@H](CCCNC(=N)N)NC1=O)C(=O)N[C@@H](Cc1c[nH]cn1)C(=O)N[C@H](C(=O)N[C@@H](Cc1ccc(O)cc1)C(=O)O)CSSC[C@H](NC(=O)[C@H](Cc1c[nH]cn1)NC(=O)[C@H](CCCNC(=N)N)NC(=O)[C@H](CC(=O)O)NC3=O)C(=O)N[C@@H](C(C)C)C(=O)N[C@@H](CO)C(=O)N[C@@H](CCCCN)C(=O)NCC(=O)N[C@@H](Cc1ccc(O)cc1)C(=O)N[C@@H]([C@@H](C)O)C(=O)NCC(=O)NCC(=O)N[C@@H](CC(N)=O)C(=O)N2` [AMSIN] (H-GFGCPWNAYECDRHCVSKGYTGGNCRGKIRQTCHCY-OH; disulfide 4-25, 11-33, 15-35; N-terminus and C-terminus assumed), the “Cell shape by scanning electron microscopy” value is given as “deformation of the cell shape”.
